Read-outs that look alike come from different tables or passages of the source.
Tests used:
[1] = system: subcutaneous LOX xenografts; assay: Tumor growth inhibition (LOX), Example A3; format: in vivo; details: female nude mice, LOX xenograft
Experimental: (§1) Female nude mice were implanted subcutaneously on the right flank with approximately 3.5×10^6 LOX cells in 100 μL PBS. Five to seven days later, tumors were measured and mice were randomized into groups of six with average tumor volume in each group of approximately 200 mm^3. Example 23 was dissolved in 80% PEG400/20% ethanol before dosing, and administered PO at a volume of 5 mL/kg. Dosing was vehicle alone on days 1, 2, 3 and 4; and Example 23 at 5 mg/kg on days 1, 2, 3 and 4. Animal weights and tumor volumes were measured using electronic calipers on day 5. Tumor volume was calculated using the formula: volume=(width^2×length)/2.

V600E full-length B-Raf = target: T1, V600E full-length B-Raf (Homo sapiens, UniProt P15056, V600E); assay: B-Raf IC50 assay (Example A); format: biochemical
T1 construct: 1 μM FSBA-MEK and 20 nM V600E full-length B-Raf; made in house; host or cells: Sf9 insect cells (baculovirus)
Outline: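 Sf9-expressed full-length V600E B-Raf (20 nM) phosphorylated 1 µM FSBA-modified wild-type MEK with 4 µM ATP plus [γ-33P]ATP in 25 mM Pipes pH 7.2, 100 mM KCl, 10 mM MgCl2. Enzyme and substrate were preincubated 15 min, and the reaction ran 60 min at 22 °C. It was TCA-quenched and filter-captured, and incorporated radioactivity was scintillation-counted.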

[2] = system: basal ERK1/2 phosphorylation in Malme-3M cells; assay: Cellular ERK 1/2 phosphorylation assay (Example A1); format: cell-based; details: Homo sapiens, 1 hour incubation, pERK normalized to total ERK, read-out: P-ERK Malme3-M IC50
Outline: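 Malme-3M cells (24,000/well, RPMI-1640 with 10% FBS) were treated with compounds for 1 h at 37 °C, 1% DMSO final. Fixed, methanol-permeabilized cells were immunostained for pERK and total ERK and read by infrared fluorescence. pERK signal was normalized to total ERK.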

[3] = system: subcutaneous LOX xenografts; assay: Tumor growth inhibition (LOX), Example A2; format: in vivo; details: female nude mice, LOX xenograft; for Tumor Volume (mm^3) Day 1: 10 mg/kg PO on days 1-4, Day 1; for Tumor Volume (mm^3) Day 3: 10 mg/kg PO on days 1-4, Day 3; for Tumor Volume (mm^3) Day 5: 10 mg/kg PO on days 1-4, Day 5
Experimental: as §1, with “mm^3. Examples 3 and 28 were” for “mm^3. Example 23 was”, “and Examples 3 and 28” for “and Example 23”, “at 10” for “at 5”, “formula: volume=(width2×length)/2.” for “formula: volume=(width^2×length)/2.”

[4] = B-Raf V600E assay of Example A, read-out: IC50
[5] = [γ-33P]ATP incorporation into FSBA-MEK, 4 μM ATP, read-out: BRAF V600E IC50

T1 sequence (P15056 whole entry V600E): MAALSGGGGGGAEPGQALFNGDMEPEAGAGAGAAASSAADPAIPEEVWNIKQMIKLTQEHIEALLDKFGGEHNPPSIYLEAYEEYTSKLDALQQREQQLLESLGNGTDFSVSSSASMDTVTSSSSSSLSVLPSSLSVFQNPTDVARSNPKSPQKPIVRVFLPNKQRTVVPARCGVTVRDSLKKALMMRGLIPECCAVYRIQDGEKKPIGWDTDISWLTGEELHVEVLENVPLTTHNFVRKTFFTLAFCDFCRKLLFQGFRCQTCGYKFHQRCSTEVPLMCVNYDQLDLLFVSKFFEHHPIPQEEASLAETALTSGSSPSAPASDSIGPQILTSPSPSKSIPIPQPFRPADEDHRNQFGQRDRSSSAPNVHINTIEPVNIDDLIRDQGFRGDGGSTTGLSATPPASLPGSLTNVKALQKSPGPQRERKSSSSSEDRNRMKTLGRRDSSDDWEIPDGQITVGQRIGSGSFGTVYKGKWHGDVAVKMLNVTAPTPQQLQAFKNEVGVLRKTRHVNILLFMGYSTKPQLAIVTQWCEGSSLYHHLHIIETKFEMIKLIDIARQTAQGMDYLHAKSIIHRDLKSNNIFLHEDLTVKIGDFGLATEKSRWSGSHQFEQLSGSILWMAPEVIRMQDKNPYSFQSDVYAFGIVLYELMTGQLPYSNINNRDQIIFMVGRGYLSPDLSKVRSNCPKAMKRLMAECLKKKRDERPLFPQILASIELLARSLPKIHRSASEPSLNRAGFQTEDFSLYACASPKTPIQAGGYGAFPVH

IC50 (V600E full-length B-Raf; [4]) [nM] | IC50 (V600E full-length B-Raf; [5]) [nM] | SMILES | Tumor Volume (mm^3) Day 1 ([1]; 5 mg/kg PO on days 1-4, Day 1) [mm^3] | Tumor Volume (mm^3) Day 3 ([1]; 5 mg/kg PO on days 1-4, Day 3) [mm^3] | Tumor Volume (mm^3) Day 5 ([1]; 5 mg/kg PO on days 1-4, Day 5) [mm^3] | IC50 [2] [nM] | Tumor Volume (mm^3) Day 1 [3] [mm^3] | Tumor Volume (mm^3) Day 3 [3] [mm^3] | Tumor Volume (mm^3) Day 5 [3] [mm^3] | IC50 (V600E full-length B-Raf; BRAF V600E IC50 (μM), [γ-33P]ATP incorporation into FSBA-MEK, 4 μM ATP) [nM]
< 100 | 0.11 | CCCS(=O)(=O)Nc1ccc(F)c(NC(=O)c2cccc3c(N)ncnc23)c1C#N [Example 28, 4-Amino-quinazoline-8-carboxylic acid [2-cyano-6-fluoro-3-(propane-1-sulfonylamino)-phenyl]-amide] | – | – | – | 14.4 | 190.71 | 176.38 | 219.31 | –
< 100 | 1.4 | CCCS(=O)(=O)Nc1ccc(F)c(NC(=O)c2cc(C)cc3c(N)ncnc23)c1F [Example 70, 4-Amino-6-methyl-quinazoline-8-carboxylic acid [2,6-difluoro-3-(propane-1-sulfonylamino)-phenyl]-amide] | – | – | – | 8.59 | – | – | – | –
< 100 | 19.3 | Cc1ncnc2c(C(=O)Nc3c(F)ccc(NS(=O)(=O)CCCF)c3F)cccc12 [Example 61, 4-Methyl-quinazoline-8-carboxylic acid [2,6-difluoro-3-(3-fluoro-propane-1-sulfonylamino)-phenyl]-amide] | – | – | – | 116 | – | – | – | –
< 100 | 0.09 | Nc1ncnc2c(C(=O)Nc3c(Cl)ccc(NS(=O)(=O)CCCF)c3F)cccc12 [Example 25, 4-Amino-quinazoline-8-carboxylic acid [6-chloro-2-fluoro-3-(3-fluoro-propane-1-sulfonylamino)-phenyl]-amide] | – | – | – | 2.21 | – | – | – | –
< 100 | 3.07 | Cc1ncnc2c(C(=O)Nc3c(Cl)ccc(NS(=O)(=O)CCCF)c3F)cccc12 [Example 62, 4-Methyl-quinazoline-8-carboxylic acid [6-chloro-2-fluoro-3-(3-fluoro-propane-1-sulfonylamino)-phenyl]-amide] | – | – | – | 44 | – | – | – | –

The next lines start with the compound.

SMILES | IC50 (V600E full-length B-Raf; [4]) [nM] | IC50 (V600E full-length B-Raf; [5]) [nM] | Tumor Volume (mm^3) Day 1 ([1]; 5 mg/kg PO on days 1-4, Day 1) [mm^3] | Tumor Volume (mm^3) Day 3 ([1]; 5 mg/kg PO on days 1-4, Day 3) [mm^3] | Tumor Volume (mm^3) Day 5 ([1]; 5 mg/kg PO on days 1-4, Day 5) [mm^3] | IC50 [2] [nM] | Tumor Volume (mm^3) Day 1 [3] [mm^3] | Tumor Volume (mm^3) Day 3 [3] [mm^3] | Tumor Volume (mm^3) Day 5 [3] [mm^3] | IC50 (V600E full-length B-Raf; BRAF V600E IC50 (μM), [γ-33P]ATP incorporation into FSBA-MEK, 4 μM ATP) [nM]
Nc1ncnc2c(C(=O)Nc3c(F)ccc(NS(=O)(=O)CCCF)c3F)cccc12 [Example 23, 4-Amino-quinazoline-8-carboxylic acid [2,6-difluoro-3-(3-fluoro-propane-1-sulfonylamino)-phenyl]-amide] | < 100 | 0.28 | 221.32 | 280.81 | 157.52 | 3.89 | – | – | – | –
CCCS(=O)(=O)Nc1cc(F)c(F)c(NC(=O)c2cccc3c(N)ncnc23)c1F [Example 9, 4-Amino-quinazoline-8-carboxylic acid [2,3,6-trifluoro-5-(propane-1-sulfonylamino)-phenyl]-amide] | < 100 | 0.39 | – | – | – | 12 | – | – | – | –
CCS(=O)(=O)Nc1ccc(F)c(NC(=O)c2cccc3c(N)ncnc23)c1Cl [Example 20, 4-Amino-quinazoline-8-carboxylic acid (2-chloro-3-ethanesulfonyl-amino-6-fluoro-phenyl)-amide] | < 100 | 2.24 | – | – | – | 32.4 | – | – | – | –
CCCS(=O)(=O)Nc1ccc(F)c(NC(=O)c2cccc3c(N)ncnc23)c1 [Example 6, 4-Amino-quinazoline-8-carboxylic acid [2-fluoro-5-(propane-1-sulfonylamino)-phenyl]-amide] | < 100 | 50.4 | – | – | – | 1720 | – | – | – | –
CCCS(=O)(=O)Nc1cccc(NC(=O)c2cccc3c(N)ncnc23)c1Cl [Example 5, 4-Amino-quinazoline-8-carboxylic acid [2-chloro-3-(propane-1-sulfonylamino)-phenyl]-amide] | < 100 | 4.77 | – | – | – | 40.7 | – | – | – | –
CCCS(=O)(=O)Nc1cc(F)cc(NC(=O)c2cccc3c(N)ncnc23)c1F [Example 11, 4-Amino-quinazoline-8-carboxylic acid [2,5-difluoro-3-(propane-1-sulfonylamino)-phenyl]-amide] | < 100 | 4.13 | – | – | – | 45 | – | – | – | –
CCCS(=O)(=O)Nc1ccc(F)c(NC(=O)c2cccc3c(N)ncnc23)c1Cl [Example 3, 4-Amino-quinazoline-8-carboxylic acid [2-chloro-6-fluoro-3-(propane-1-sulfonylamino)-phenyl]-amide] | < 100 | – | – | – | – | 7.23 | 190.33 | 151.33 | 118.41 | 0.53
CCCS(=O)(=O)Nc1ccc(F)c(NC(=O)c2cncc3c(N)ncnc23)c1F [Example 2, 4-Amino-pyrido[4,3-d]pyrimidine-8-carboxylic acid [2,6-difluoro-3-(propane-1-sulfonylamino)-phenyl]-amide] | < 100 | 1.25 | – | – | – | 9.6 | – | – | – | –
